Experimental data published in patent US20250147039A1, “Compounds for complexation of rare earth elements and/or s-, p-, d- block metals, their coordination compounds, peptide conjugates, method of their preparation and use thereof” (USTAV ORGANICKE CHEMIE A BIOCHEMIE AV CR V.V.I., priority 2021, published 2025).

What was measured:
[1] = Formation of 1,5-cz-[Ln(Lig)] from Lig and Ln^III ions (metal dependent click-zip), MOPS/NaOH buffer pH 7.0, analytical HPLC (Charts 1, 2); details: MOPS/NaOH buffer pH 7.0
[2] = Formation of 1,5-cz-[M(Lig)] from Lig and M^III ions (metal dependent click-zip) (Charts 4, 5); type: physicochemical; details: MOPS/NaOH buffer pH 7.0; for conversion to 1,5-cz-[M(Lig)], Sc^III / conversion to 1,5-cz-[M(Lig)], Y^III: TD728, TD827 in 50% i-PrOH; for conversion to 1,5-cz-[M(Lig)], Y^III: TD714 sum of two diastereoisomers

Compound: C#Cc1cccc(CN2CCN(CC(=O)O)CCN(Cc3cc(C(=O)OC)cc(CN=[N+]=[N-])n3)CCN(CC(=O)O)CC2)n1 [TD1092]
- conversion to 1,5-cz-[Ln(Lig)] with hydrolysed group in the side chain, Ce^III ([1]; after 1 week at 80° C.): 37%
- conversion to 1,5-cz-[Ln(Lig)], Ce^III ([1]; after 1 week at 80° C.): 0%
- conversion to 1,5-cz-[Ln(Lig)] with hydrolysed group in the side chain, Ce^III ([1]; after 1 hour at 80° C.): 0%
- conversion to 1,5-cz-[Ln(Lig)], Ce^III ([1]; after 1 hour at 80° C.): 0%
- conversion to 1,5-cz-[Ln(Lig)] with hydrolysed group in the side chain, Dy^III ([1]; after 1 week at 80° C.): 94%
- conversion to 1,5-cz-[Ln(Lig)], Dy^III ([1]; after 1 week at 80° C.): 0%
- conversion to 1,5-cz-[Ln(Lig)] with hydrolysed group in the side chain, Dy^III ([1]; after 1 hour at 80° C.): 8%
- conversion to 1,5-cz-[Ln(Lig)], Dy^III ([1]; after 1 hour at 80° C.): 5%
- conversion to 1,5-cz-[Ln(Lig)] with hydrolysed group in the side chain, Er^III ([1]; after 1 week at 80° C.): 94%
- conversion to 1,5-cz-[Ln(Lig)], Er^III ([1]; after 1 week at 80° C.): 0%
- conversion to 1,5-cz-[Ln(Lig)] with hydrolysed group in the side chain, Er^III ([1]; after 1 hour at 80° C.): 19%
- conversion to 1,5-cz-[Ln(Lig)], Er^III ([1]; after 1 hour at 80° C.): 12%
- conversion to 1,5-cz-[Ln(Lig)] with hydrolysed group in the side chain, Eu^III ([1]; after 1 week at 80° C.): 91%
- conversion to 1,5-cz-[Ln(Lig)], Eu^III ([1]; after 1 week at 80° C.): 0%
- conversion to 1,5-cz-[Ln(Lig)] with hydrolysed group in the side chain, Eu^III ([1]; after 1 hour at 80° C.): 2%
- conversion to 1,5-cz-[Ln(Lig)], Eu^III ([1]; after 1 hour at 80° C.): 2%
- conversion to 1,5-cz-[Ln(Lig)] with hydrolysed group in the side chain, Gd^III ([1]; after 1 week at 80° C.): 92%
- conversion to 1,5-cz-[Ln(Lig)], Gd^III ([1]; after 1 week at 80° C.): 0%
- conversion to 1,5-cz-[Ln(Lig)] with hydrolysed group in the side chain, Gd^III ([1]; after 1 hour at 80° C.): 3%
- conversion to 1,5-cz-[Ln(Lig)], Gd^III ([1]; after 1 hour at 80° C.): 2%
- conversion to 1,5-cz-[Ln(Lig)] with hydrolysed group in the side chain, Ho^III ([1]; after 1 week at 80° C.): 94%
- conversion to 1,5-cz-[Ln(Lig)], Ho^III ([1]; after 1 week at 80° C.): 0%
- conversion to 1,5-cz-[Ln(Lig)] with hydrolysed group in the side chain, Ho^III ([1]; after 1 hour at 80° C.): 13%
- conversion to 1,5-cz-[Ln(Lig)], Ho^III ([1]; after 1 hour at 80° C.): 7%
- conversion to 1,5-cz-[Ln(Lig)] with hydrolysed group in the side chain, La^III ([1]; after 1 week at 80° C.): 40%
- conversion to 1,5-cz-[Ln(Lig)], La^III ([1]; after 1 week at 80° C.): 0%
- conversion to 1,5-cz-[Ln(Lig)] with hydrolysed group in the side chain, La^III ([1]; after 1 hour at 80° C.): 0%
- conversion to 1,5-cz-[Ln(Lig)], La^III ([1]; after 1 hour at 80° C.): 0%
- conversion to 1,5-cz-[Ln(Lig)] with hydrolysed group in the side chain, Lu^III ([1]; after 1 week at 80° C.): 97%
- conversion to 1,5-cz-[Ln(Lig)], Lu^III ([1]; after 1 week at 80° C.): 0%
- conversion to 1,5-cz-[Ln(Lig)] with hydrolysed group in the side chain, Lu^III ([1]; after 1 hour at 80° C.): 30%
- conversion to 1,5-cz-[Ln(Lig)], Lu^III ([1]; after 1 hour at 80° C.): 26%
- conversion to 1,5-cz-[Ln(Lig)] with hydrolysed group in the side chain, Nd^III ([1]; after 1 week at 80° C.): 73%
- conversion to 1,5-cz-[Ln(Lig)], Nd^III ([1]; after 1 week at 80° C.): 0%
- conversion to 1,5-cz-[Ln(Lig)] with hydrolysed group in the side chain, Nd^III ([1]; after 1 hour at 80° C.): 0%
- conversion to 1,5-cz-[Ln(Lig)], Nd^III ([1]; after 1 hour at 80° C.): 1%
- conversion to 1,5-cz-[Ln(Lig)] with hydrolysed group in the side chain, Pr^III ([1]; after 1 week at 80° C.): 62%
- conversion to 1,5-cz-[Ln(Lig)], Pr^III ([1]; after 1 week at 80° C.): 0%
- conversion to 1,5-cz-[Ln(Lig)] with hydrolysed group in the side chain, Pr^III ([1]; after 1 hour at 80° C.): 0%
- conversion to 1,5-cz-[Ln(Lig)], Pr^III ([1]; after 1 hour at 80° C.): 0%
- conversion to 1,5-cz-[Ln(Lig)] with hydrolysed group in the side chain, Sm^III ([1]; after 1 week at 80° C.): 88%
- conversion to 1,5-cz-[Ln(Lig)], Sm^III ([1]; after 1 week at 80° C.): 0%
- conversion to 1,5-cz-[Ln(Lig)] with hydrolysed group in the side chain, Sm^III ([1]; after 1 hour at 80° C.): 2%
- conversion to 1,5-cz-[Ln(Lig)], Sm^III ([1]; after 1 hour at 80° C.): 1%
- conversion to 1,5-cz-[Ln(Lig)] with hydrolysed group in the side chain, Tb^III ([1]; after 1 week at 80° C.): 93%
- conversion to 1,5-cz-[Ln(Lig)], Tb^III ([1]; after 1 week at 80° C.): 0%
- conversion to 1,5-cz-[Ln(Lig)] with hydrolysed group in the side chain, Tb^III ([1]; after 1 hour at 80° C.): 6%
- conversion to 1,5-cz-[Ln(Lig)], Tb^III ([1]; after 1 hour at 80° C.): 3%
- conversion to 1,5-cz-[Ln(Lig)] with hydrolysed group in the side chain, Tm^III ([1]; after 1 week at 80° C.): 95%
- conversion to 1,5-cz-[Ln(Lig)], Tm^III ([1]; after 1 week at 80° C.): 0%
- conversion to 1,5-cz-[Ln(Lig)] with hydrolysed group in the side chain, Tm^III ([1]; after 1 hour at 80° C.): 26%
- conversion to 1,5-cz-[Ln(Lig)], Tm^III ([1]; after 1 hour at 80° C.): 19%
- conversion to 1,5-cz-[Ln(Lig)] with hydrolysed group in the side chain, Yb^III ([1]; after 1 week at 80° C.): 96%
- conversion to 1,5-cz-[Ln(Lig)], Yb^III ([1]; after 1 week at 80° C.): 0%
- conversion to 1,5-cz-[Ln(Lig)] with hydrolysed group in the side chain, Yb^III ([1]; after 1 hour at 80° C.): 30%
- conversion to 1,5-cz-[Ln(Lig)], Yb^III ([1]; after 1 hour at 80° C.): 24%
- conversion to 1,5-cz-[Ln(Lig)] with hydrolysed group in the side chain, Sc^III ([2]; 1 week at 80° C.): 17%
- conversion to 1,5-cz-[Ln(Lig)] with hydrolysed group in the side chain, Y^III ([2]; 1 week at 80° C.): 95%
- conversion to 1,5-cz-[M(Lig)], Sc^III ([2]; 1 week at 80° C.): 0%
- conversion to 1,5-cz-[M(Lig)], Y^III ([2]; 1 week at 80° C.): 0%
- conversion to 1,5-cz-[Ln(Lig)] with hydrolysed group in the side chain, Sc^III ([2]; 1 hour at 80° C.): 0%
- conversion to 1,5-cz-[Ln(Lig)] with hydrolysed group in the side chain, Y^III ([2]; 1 hour at 80° C.): 12%
- conversion to 1,5-cz-[M(Lig)], Sc^III ([2]; 1 hour at 80° C.): 1%
- conversion to 1,5-cz-[M(Lig)], Y^III ([2]; 1 hour at 80° C.): 6%

Compound: C#Cc1cccc(CN2CCN(CC(=O)O)CCN(Cc3cccc(CN=[N+]=[N-])n3)CCN(CC(=O)O)CC2)n1 [TD556]
- conversion to 1,5-cz-[Ln(Lig)], Ce^III ([1]; after 1 week at 80° C.): 25%
- conversion to 1,5-cz-[Ln(Lig)], Ce^III ([1]; after 1 hour at 80° C.): 1%
- conversion to 1,5-cz-[Ln(Lig)], Dy^III ([1]; after 1 week at 80° C.): 94%
- conversion to 1,5-cz-[Ln(Lig)], Dy^III ([1]; after 1 hour at 80° C.): 16%
- conversion to 1,5-cz-[Ln(Lig)], Er^III ([1]; after 1 week at 80° C.): 95%
- conversion to 1,5-cz-[Ln(Lig)], Er^III ([1]; after 1 hour at 80° C.): 37%
- conversion to 1,5-cz-[Ln(Lig)], Eu^III ([1]; after 1 week at 80° C.): 92%
- conversion to 1,5-cz-[Ln(Lig)], Eu^III ([1]; after 1 hour at 80° C.): 4%
- conversion to 1,5-cz-[Ln(Lig)], Gd^III ([1]; after 1 week at 80° C.): 91%
- conversion to 1,5-cz-[Ln(Lig)], Gd^III ([1]; after 1 hour at 80° C.): 5%
- conversion to 1,5-cz-[Ln(Lig)], Ho^III ([1]; after 1 week at 80° C.): 95%
- conversion to 1,5-cz-[Ln(Lig)], Ho^III ([1]; after 1 hour at 80° C.): 24%
- conversion to 1,5-cz-[Ln(Lig)], La^III ([1]; after 1 week at 80° C.): 50%
- conversion to 1,5-cz-[Ln(Lig)], La^III ([1]; after 1 hour at 80° C.): 1%
- conversion to 1,5-cz-[Ln(Lig)], Lu^III ([1]; after 1 week at 80° C.): 95%
- conversion to 1,5-cz-[Ln(Lig)], Lu^III ([1]; after 1 hour at 80° C.): 71%
- conversion to 1,5-cz-[Ln(Lig)], Nd^III ([1]; after 1 week at 80° C.): 81%
- conversion to 1,5-cz-[Ln(Lig)], Nd^III ([1]; after 1 hour at 80° C.): 2%
- conversion to 1,5-cz-[Ln(Lig)], Pr^III ([1]; after 1 week at 80° C.): 64%
- conversion to 1,5-cz-[Ln(Lig)], Pr^III ([1]; after 1 hour at 80° C.): 1%
- conversion to 1,5-cz-[Ln(Lig)], Sm^III ([1]; after 1 week at 80° C.): 92%
- conversion to 1,5-cz-[Ln(Lig)], Sm^III ([1]; after 1 hour at 80° C.): 3%
- conversion to 1,5-cz-[Ln(Lig)], Tb^III ([1]; after 1 week at 80° C.): 95%
- conversion to 1,5-cz-[Ln(Lig)], Tb^III ([1]; after 1 hour at 80° C.): 11%
- conversion to 1,5-cz-[Ln(Lig)], Tm^III ([1]; after 1 week at 80° C.): 95%
- conversion to 1,5-cz-[Ln(Lig)], Tm^III ([1]; after 1 hour at 80° C.): 52%
- conversion to 1,5-cz-[Ln(Lig)], Yb^III ([1]; after 1 week at 80° C.): 95%
- conversion to 1,5-cz-[Ln(Lig)], Yb^III ([1]; after 1 hour at 80° C.): 64%
- conversion to 1,5-cz-[M(Lig)], Sc^III ([2]; 1 week at 80° C.): 23%
- conversion to 1,5-cz-[M(Lig)], Y^III ([2]; 1 week at 80° C.): 95%
- conversion to 1,5-cz-[M(Lig)], Sc^III ([2]; 1 hour at 80° C.): 2%
- conversion to 1,5-cz-[M(Lig)], Y^III ([2]; 1 hour at 80° C.): 22%
